Reference: ChEMBL document CHEMBL1201862, “PubChem BioAssay data set” (2004)
Calls of active or inactive are those of the source.

Key:
[1] = target: T1, Sentrin-specific protease 6 (Homo sapiens, UniProt Q9GZR1); assay type: functional;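 note: Luminescence-based dose-response confirmatory assay of SENP6 inhibition, following up an ultra-high-throughput screen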
T1 sequence (Q9GZR1 whole entry): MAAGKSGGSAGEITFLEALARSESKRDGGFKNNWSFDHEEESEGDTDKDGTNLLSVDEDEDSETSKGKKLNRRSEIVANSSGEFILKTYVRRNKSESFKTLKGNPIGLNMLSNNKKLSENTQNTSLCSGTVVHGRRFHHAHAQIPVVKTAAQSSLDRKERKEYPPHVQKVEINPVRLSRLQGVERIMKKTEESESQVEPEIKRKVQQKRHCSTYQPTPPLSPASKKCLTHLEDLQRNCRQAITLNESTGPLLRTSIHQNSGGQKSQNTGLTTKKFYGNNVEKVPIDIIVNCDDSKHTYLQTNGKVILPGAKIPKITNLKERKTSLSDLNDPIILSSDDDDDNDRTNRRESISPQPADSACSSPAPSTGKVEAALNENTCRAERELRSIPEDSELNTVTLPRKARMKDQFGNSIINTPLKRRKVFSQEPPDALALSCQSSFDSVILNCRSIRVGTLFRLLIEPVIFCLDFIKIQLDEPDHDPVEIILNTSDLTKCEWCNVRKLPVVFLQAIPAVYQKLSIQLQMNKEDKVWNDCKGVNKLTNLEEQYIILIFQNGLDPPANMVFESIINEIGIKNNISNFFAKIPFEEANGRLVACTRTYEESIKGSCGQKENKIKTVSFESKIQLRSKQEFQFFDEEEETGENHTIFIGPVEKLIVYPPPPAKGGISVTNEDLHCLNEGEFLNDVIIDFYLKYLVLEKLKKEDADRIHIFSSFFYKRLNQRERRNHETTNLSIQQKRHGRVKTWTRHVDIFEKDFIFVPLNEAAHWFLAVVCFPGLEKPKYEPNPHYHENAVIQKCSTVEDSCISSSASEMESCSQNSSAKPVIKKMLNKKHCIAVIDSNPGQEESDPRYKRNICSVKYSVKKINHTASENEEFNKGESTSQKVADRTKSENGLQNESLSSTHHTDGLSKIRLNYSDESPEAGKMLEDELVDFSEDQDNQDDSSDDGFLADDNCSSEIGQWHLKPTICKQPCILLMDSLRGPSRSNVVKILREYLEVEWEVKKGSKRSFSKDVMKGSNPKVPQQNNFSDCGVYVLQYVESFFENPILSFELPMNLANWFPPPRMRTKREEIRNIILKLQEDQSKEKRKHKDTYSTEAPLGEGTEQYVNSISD

[2] = target: T2, Caspase-3 (Homo sapiens, UniProt P42574); assay type: functional;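 note: Dose-response selectivity test against caspase-3 for candidate inhibitors of sentrin-specific proteases (SENPs)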
T2 sequence (P42574 whole entry): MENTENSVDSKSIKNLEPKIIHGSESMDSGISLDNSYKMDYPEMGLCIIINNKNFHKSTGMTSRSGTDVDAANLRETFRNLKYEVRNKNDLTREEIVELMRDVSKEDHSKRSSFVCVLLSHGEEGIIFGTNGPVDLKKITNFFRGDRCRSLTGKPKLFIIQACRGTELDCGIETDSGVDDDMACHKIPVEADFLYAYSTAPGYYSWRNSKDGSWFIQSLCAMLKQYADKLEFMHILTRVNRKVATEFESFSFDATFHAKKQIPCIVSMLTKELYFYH

[3] = target: T3, Sentrin-specific protease 8 (Homo sapiens, UniProt Q96LD8); assay type: functional;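 note: luminescence read-out of SENP8 inhibition, dose-response confirmation following an ultra-high-throughput screen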
T3 sequence (Q96LD8 whole entry): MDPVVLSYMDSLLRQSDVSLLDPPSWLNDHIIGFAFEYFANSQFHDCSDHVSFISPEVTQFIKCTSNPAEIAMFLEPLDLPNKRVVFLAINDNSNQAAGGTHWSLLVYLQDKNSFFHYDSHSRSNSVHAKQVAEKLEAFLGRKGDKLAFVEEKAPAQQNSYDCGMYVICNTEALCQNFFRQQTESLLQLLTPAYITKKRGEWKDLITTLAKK

[4] = target: T4, Sentrin-specific protease 7 (Homo sapiens, UniProt Q9BQF6); assay type: functional;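 note: Luminescence-based dose-response confirmation of ultra-high-throughput screening hits, measuring inhibition of SENP7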
T4 sequence (Q9BQF6 whole entry): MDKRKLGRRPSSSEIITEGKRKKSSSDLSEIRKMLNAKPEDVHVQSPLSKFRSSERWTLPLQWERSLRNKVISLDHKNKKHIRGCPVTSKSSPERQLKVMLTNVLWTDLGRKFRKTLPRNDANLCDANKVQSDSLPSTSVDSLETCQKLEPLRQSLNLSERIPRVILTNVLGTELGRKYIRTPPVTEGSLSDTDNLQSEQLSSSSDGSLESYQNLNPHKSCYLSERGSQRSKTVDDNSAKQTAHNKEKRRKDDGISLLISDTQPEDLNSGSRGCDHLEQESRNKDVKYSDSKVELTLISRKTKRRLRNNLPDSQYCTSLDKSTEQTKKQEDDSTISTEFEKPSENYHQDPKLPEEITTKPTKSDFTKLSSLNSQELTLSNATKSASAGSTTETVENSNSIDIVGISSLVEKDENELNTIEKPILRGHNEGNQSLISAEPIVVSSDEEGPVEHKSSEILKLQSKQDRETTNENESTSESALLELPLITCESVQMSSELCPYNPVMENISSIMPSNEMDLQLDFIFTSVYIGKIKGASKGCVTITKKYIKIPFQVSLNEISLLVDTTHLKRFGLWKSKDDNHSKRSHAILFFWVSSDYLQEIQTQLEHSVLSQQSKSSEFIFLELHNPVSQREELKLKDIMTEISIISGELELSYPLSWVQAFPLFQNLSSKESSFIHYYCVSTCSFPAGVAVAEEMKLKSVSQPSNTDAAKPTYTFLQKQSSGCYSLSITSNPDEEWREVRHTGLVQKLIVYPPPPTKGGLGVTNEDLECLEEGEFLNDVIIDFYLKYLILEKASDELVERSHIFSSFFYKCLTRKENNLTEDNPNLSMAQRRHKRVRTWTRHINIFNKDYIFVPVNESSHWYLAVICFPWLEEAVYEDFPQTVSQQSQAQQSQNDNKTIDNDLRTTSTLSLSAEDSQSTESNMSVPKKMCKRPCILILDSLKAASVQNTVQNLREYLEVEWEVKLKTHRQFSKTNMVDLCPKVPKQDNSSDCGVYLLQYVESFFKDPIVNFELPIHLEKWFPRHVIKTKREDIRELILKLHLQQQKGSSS

[5] = target: Cyclin-dependent kinase 7 (Homo sapiens, UniProt P50613); assay type: functional;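 note: value comes from a kinome-wide kinase profiling panel in which CDK7 is one member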
Chain of Cyclin-dependent kinase 7 (P50613 whole entry): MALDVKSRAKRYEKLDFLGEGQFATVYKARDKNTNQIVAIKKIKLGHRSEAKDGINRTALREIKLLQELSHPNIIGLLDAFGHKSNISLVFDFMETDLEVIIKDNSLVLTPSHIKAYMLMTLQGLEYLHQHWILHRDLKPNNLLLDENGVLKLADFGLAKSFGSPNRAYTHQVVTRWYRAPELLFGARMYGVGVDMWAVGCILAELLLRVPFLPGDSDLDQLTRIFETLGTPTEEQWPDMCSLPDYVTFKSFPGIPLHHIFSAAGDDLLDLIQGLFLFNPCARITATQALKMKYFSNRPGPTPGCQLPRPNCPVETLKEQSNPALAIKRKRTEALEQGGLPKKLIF

[6] = target: Serine/threonine-protein kinase TAO1 (Homo sapiens, UniProt Q7L7X3); assay type: functional
Chain of Serine/threonine-protein kinase TAO1 (Q7L7X3 whole entry): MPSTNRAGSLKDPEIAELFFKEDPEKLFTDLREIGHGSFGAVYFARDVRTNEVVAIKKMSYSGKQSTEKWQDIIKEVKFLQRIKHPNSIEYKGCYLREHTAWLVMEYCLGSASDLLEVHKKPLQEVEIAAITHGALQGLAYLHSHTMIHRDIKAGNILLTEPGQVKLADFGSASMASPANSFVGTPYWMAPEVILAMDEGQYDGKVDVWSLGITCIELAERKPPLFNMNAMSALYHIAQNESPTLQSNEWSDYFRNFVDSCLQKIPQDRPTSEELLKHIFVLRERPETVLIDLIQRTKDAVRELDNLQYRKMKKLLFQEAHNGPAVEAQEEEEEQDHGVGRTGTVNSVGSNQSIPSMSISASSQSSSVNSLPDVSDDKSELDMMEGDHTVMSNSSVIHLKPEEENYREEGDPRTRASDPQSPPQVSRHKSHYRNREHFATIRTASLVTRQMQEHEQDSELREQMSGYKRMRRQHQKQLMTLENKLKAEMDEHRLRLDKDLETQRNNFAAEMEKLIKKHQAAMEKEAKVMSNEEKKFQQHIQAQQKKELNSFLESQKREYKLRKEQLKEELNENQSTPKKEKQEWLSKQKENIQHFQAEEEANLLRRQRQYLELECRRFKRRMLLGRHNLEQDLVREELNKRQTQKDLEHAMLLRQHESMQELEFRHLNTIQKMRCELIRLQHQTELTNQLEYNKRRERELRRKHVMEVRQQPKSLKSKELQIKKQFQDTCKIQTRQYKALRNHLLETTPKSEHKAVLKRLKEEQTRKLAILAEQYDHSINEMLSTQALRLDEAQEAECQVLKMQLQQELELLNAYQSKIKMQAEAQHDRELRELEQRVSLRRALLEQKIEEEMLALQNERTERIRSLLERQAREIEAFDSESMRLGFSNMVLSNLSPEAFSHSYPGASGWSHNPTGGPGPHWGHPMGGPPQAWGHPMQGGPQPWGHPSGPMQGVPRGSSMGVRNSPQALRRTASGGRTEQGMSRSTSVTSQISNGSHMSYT

[7] = target: Serine/threonine-protein kinase Nek2 (Homo sapiens, UniProt P51955); assay type: functional
Chain of Serine/threonine-protein kinase Nek2 (P51955 whole entry): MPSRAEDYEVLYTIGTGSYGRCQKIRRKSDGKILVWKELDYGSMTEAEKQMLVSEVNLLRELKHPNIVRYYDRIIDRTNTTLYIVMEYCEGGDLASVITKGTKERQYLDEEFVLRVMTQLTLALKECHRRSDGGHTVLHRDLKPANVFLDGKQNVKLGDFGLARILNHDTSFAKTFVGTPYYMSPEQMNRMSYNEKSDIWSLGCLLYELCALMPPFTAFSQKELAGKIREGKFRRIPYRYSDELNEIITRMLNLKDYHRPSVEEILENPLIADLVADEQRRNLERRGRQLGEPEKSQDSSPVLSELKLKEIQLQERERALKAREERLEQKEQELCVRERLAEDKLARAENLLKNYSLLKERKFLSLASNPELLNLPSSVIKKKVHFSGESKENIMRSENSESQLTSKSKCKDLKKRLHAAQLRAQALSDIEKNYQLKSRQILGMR

[8] = target: Cyclin-dependent kinase 8 (Homo sapiens, UniProt P49336); test: Navigating the Kinome. Panel member name: CDK8; assay type: functional
Chain of Cyclin-dependent kinase 8 (P49336 whole entry): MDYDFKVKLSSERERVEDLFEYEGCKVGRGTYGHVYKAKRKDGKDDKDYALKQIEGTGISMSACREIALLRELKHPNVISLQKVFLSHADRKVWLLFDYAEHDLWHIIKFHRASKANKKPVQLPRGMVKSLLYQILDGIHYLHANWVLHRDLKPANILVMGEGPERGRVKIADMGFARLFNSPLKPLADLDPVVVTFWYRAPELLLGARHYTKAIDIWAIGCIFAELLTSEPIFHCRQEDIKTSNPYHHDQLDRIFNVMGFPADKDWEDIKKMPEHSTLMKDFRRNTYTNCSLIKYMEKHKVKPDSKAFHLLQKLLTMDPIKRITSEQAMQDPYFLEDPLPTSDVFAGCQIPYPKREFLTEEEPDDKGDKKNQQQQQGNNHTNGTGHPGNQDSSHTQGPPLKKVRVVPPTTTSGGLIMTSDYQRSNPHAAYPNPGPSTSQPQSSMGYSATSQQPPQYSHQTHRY

[9] = target: High affinity nerve growth factor receptor (Homo sapiens, UniProt P04629); assay type: functional;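 note: NTRK1 tested as one member of a kinome-wide profiling panel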
Chain of High affinity nerve growth factor receptor (P04629 whole entry): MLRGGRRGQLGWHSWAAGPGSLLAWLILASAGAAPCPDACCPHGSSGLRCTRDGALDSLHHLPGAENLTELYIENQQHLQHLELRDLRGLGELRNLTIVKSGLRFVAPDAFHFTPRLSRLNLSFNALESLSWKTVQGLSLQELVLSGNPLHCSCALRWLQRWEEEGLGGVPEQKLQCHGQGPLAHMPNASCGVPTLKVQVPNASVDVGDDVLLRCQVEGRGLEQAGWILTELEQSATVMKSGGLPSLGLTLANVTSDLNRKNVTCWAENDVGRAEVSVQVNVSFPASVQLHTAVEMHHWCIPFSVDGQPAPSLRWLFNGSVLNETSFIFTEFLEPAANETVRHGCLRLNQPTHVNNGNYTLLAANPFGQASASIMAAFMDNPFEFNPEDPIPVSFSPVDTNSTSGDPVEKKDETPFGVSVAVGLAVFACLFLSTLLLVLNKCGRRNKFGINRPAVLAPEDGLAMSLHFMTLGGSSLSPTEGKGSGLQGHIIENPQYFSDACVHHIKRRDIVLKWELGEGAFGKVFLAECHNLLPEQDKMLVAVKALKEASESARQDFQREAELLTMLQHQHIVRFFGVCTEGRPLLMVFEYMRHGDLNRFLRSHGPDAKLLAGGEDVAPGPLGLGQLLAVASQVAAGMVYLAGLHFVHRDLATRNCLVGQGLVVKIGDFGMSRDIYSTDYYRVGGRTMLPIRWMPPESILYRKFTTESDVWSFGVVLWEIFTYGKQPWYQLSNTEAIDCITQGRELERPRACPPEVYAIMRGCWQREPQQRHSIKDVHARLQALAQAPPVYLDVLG

[10] = inhibitors of SNCA 5'UTR-driven reporter translation, confirmation, H4 neuroglioma cells, luminescence (AID 1988); assay type: functional, cell-based

Ki [5]	Ki [6]	Ki [7]	Ki [8]	Ki [9]	SMILES	IC50 [1]	IC50 [2]	IC50 [3]	IC50 [4]	EC50 [10]
–	–	–	–	–	Cc1ccc(NC(=O)COc2cccc(/C=C3\SC(=S)N(CCC(=O)O)C3=O)c2)cc1Cl	> 100 µM (inactive)	70 µM (active)	3.14 µM (active)	18.3 µM (active)	–
> 3.98 µM (inactive)	> 6.31 µM (inactive)	> 3.16 µM (inactive)	3.16 µM (active)	> 3.16 µM (inactive)	COc1cccc(C(C)NC(=O)c2ccc(-c3ccncc3)s2)c1 (centres undefined)	–	–	–	–	–
–	–	–	–	–	O=Nc1c(-c2c(O)[nH]c3cc(Br)ccc23)[nH]c2ccccc12	> 100 µM (inactive)	64.3 µM (active)	> 100 µM (inactive)	5.6 µM (active)	9.31 µM (active)
